According to patent publication US10023562B2, “Heteroaryl substituted pyridyl compounds useful as kinase modulators” (BRISTOL-MYERS SQUIBB COMPANY, priority 2012, dated 2018):
Where two headings read alike, the source gives them in different places.

Tested on: TLR2 induced IL-6 in peripheral blood mononuclear cells (PBMCs)
Test: PBMC TLR2 Induced IL-6 Assay
Type: cell-based
Conditions: 10 μg/ml lipoteichoic acid for 5 hours, IL-6 by ELISA; for EC50: values marked * are EC50, read-out: Cell EC50 (values marked *); for IC50: values without asterisk, read-out: Cell IC50
Experimental: PBMC TLR2 Induced IL-6 Assay Peripheral blood mononuclear cells (PBMCs) were isolated from human blood containing the anti-coagulant EDTA (2.5 mM) by centrifugation over a FICOLL® gradient. […] At the end of the culture, plates were centrifuged at 1800 rpm for 10 minutes to pellet the cells. Supernatants were harvested and analyzed for IL-6 levels by ELISA (BD Biosciences, San Jose, Calif.).

| Compound | EC50 (Homo sapiens, PBMC, 5 h) [µM] | other results |
| --- | --- | --- |
| CC(C)(O)C(F)(F)CNC(=O)c1cnc(Nc2ncc(C#N)cc2Cl)cc1NC1CC1 [Example 43, 6-((3-chloro-5-cyanopyridin-2-yl)amino)-4-(cyclopropylamino)-N-(2,2-difluoro-3-hydroxy-3-methylbutyl)nicotinamide] | 0.169 |  |
| CC(C)Nc1cc(Nc2ccc(=O)[nH]n2)ncc1C(=O)NC[C@@H](F)C(C)(C)O [Example 45] |  | IC50 (Homo sapiens, PBMC, 5 h): 0.712 µM |
| CC(C)(F)CNc1cc(Nc2ncc(C#N)cc2Cl)ncc1C(=O)NC[C@@H](F)C(C)(C)O [Example 46] | 0.206 |  |
| CC(C)(O)[C@H](F)CNC(=O)c1cnc(Nc2ncc(C#N)cc2F)cc1NC1CC1 [Example 47] |  | IC50 (Homo sapiens, PBMC, 5 h): 0.069 µM |
| CC(C)(O)CNc1cc(Nc2ncc(C#N)cc2Cl)ncc1C(=O)NC[C@@H](F)C(C)(C)O [Example 48] |  | IC50 (Homo sapiens, PBMC, 5 h): 0.369 µM |
| CC(C)(O)[C@H](F)CNC(=O)c1cnc(Nc2ncc(C#N)cc2F)cc1NC1CCOCC1 [Example 49] |  | IC50 (Homo sapiens, PBMC, 5 h): 0.164 µM |
| C[C@@H](CO)Nc1cc(Nc2ncc(C#N)cc2Cl)ncc1C(=O)NC[C@@H](F)C(C)(C)O [Example 50] |  | IC50 (Homo sapiens, PBMC, 5 h): 0.085 µM |
| CCNc1cc(Nc2ncc(C#N)cc2Cl)ncc1C(=O)NC[C@@H](F)C(C)(C)O [Example 51] |  | IC50 (Homo sapiens, PBMC, 5 h): 0.099 µM |
| CC(C)Nc1cc(Nc2ncncc2Cl)ncc1C(=O)NC[C@@H](F)C(C)(C)O [Example 52] |  | IC50 (Homo sapiens, PBMC, 5 h): 0.074 µM |
| CC(C)Nc1cc(Nc2ncncc2F)ncc1C(=O)NC[C@@H](F)C(C)(C)O [Example 53] | 0.517 |  |
| CC(C)(O)[C@H](F)CNC(=O)c1cnc(Nc2ncc(C#N)cn2)cc1NC1CCC(F)C1 (stereo partly shown) [Example 56] |  | IC50 (Homo sapiens, PBMC, 5 h): 0.041 µM |
| CCNc1cc(Nc2ncc(C#N)cn2)ncc1C(=O)NC[C@@H](F)C(C)(C)O [Example 58] |  | IC50 (Homo sapiens, PBMC, 5 h): 0.191 µM |
| CNC(=O)[C@H]1CC[C@H](NC(=O)c2cnc(Nc3ncc(C#N)cc3F)cc2NC2CC2)CC1 [Example 59] |  | IC50 (Homo sapiens, PBMC, 5 h): 0.06 µM |
| CNC(=O)[C@H]1CC[C@H](NC(=O)c2cnc(Nc3ncc(C#N)cc3Cl)cc2NC2CC2)CC1 [Example 60] |  | IC50 (Homo sapiens, PBMC, 5 h): 0.052 µM |
| CNC(=O)[C@H]1CC[C@H](NC(=O)c2cnc(Nc3ncc(C#N)cc3F)cc2NC2CCOCC2)CC1 [Example 61] |  | IC50 (Homo sapiens, PBMC, 5 h): 0.184 µM |
| Cc1nc(Nc2cc(NC(C)C)c(C(=O)NC[C@@H](F)C(C)(C)O)cn2)ccc1C#N [Example 63] | 0.092 |  |
| CC(=O)N[C@H](C)CCNC(=O)c1cnc(Nc2ncc(C#N)cc2F)cc1NC(C)C [Example 64] |  | IC50 (Homo sapiens, PBMC, 5 h): 0.448 µM |
| CC(C)(O)[C@H](F)CNC(=O)c1cnc(Nc2ncc(C#N)cc2Cl)cc1NCC(F)(F)F [Example 65] | 0.156 |  |
| CCNc1cc(Nc2ncc(C#N)cc2F)ncc1C(=O)NC[C@@H](F)C(C)(C)O [Example 66] | 0.063 |  |
| CC(=O)N[C@H]1CC[C@H](NC(=O)c2cnc(Nc3ncc(C#N)cc3Cl)cc2NC2CC2)CC1 [Example 67] | 0.457 |  |
| CCn1ncc(Nc2cc(NC(C)C)c(C(=O)NC[C@@H](F)C(C)(C)O)cn2)n1 [Example 72] | 0.246 |  |
| CC(C)(O)c1cnc(Nc2cc(Nc3ncc(C#N)cc3Cl)ncc2C(=O)NC[C@@H](F)C(C)(C)O)s1 [Example 75] | 0.054 |  |
| CC(C)(O)[C@H](F)CNC(=O)c1cnc(Nc2ncc(C#N)cc2Cl)cc1NC1CCCC1O (stereo partly shown) [Example 76] | 0.107 |  |
| CC(=O)N[C@H]1CC[C@H](NC(=O)c2cnc(Nc3ncc(C#N)cc3Cl)cc2NC2CCOCC2)CC1 [Example 77] | 0.216 |  |
| CC(C)(O)[C@H](F)CNC(=O)c1cnc(Nc2ncc(C#N)cc2Cl)cc1NC1CCOCC1F (stereo partly shown) [Example 79] | 0.494 |  |
| CC(C)Nc1cc(Nc2ncc(F)cc2F)ncc1C(=O)NC[C@@H](F)C(C)(C)O [Example 80] | 0.335 |  |
| CC(C)(O)[C@H](F)CNC(=O)c1cnc(Nc2ccc(Cl)cn2)cc1NC1CC1 [Example 81] | 0.096 |  |
| CC(=O)N[C@H]1CC[C@H](NC(=O)c2cnc(Nc3ncc(C#N)cc3F)cc2NC2CC2)CC1 [Example 83] | 0.771 |  |

| Compound | EC50 (Homo sapiens, PBMC, 5 h) [µM] | other results |
| --- | --- | --- |
| CC(C)(O)[C@H](F)CNC(=O)c1cnc(Nc2ncc(C#N)cn2)cc1NC1CCC(F)C1 (stereo partly shown) [Example 86] | 0.349 |  |
| CC(C)(O)[C@H](F)CNC(=O)c1cnc(Nc2ncc(F)cc2F)cc1NC1CC1 [Example 89] | 0.491 |  |
| CC(C)(O)[C@H](F)CNC(=O)c1cnc(Nc2ncc(C#N)cc2Cl)cc1NC12CC(C1)C2 [Example 90] | 0.243 |  |
| C[C@@H](CO)Nc1cc(Nc2ncc(C#N)cc2F)ncc1C(=O)NC[C@@H](F)C(C)(C)O [Example 91] | 0.178 |  |
| CC(C)Nc1cc(Nc2ncc(C#N)cc2Cl)ncc1C(=O)N[C@H]1CC[C@H](O)CC1 [Example 92] | 0.269 |  |
| COC(=O)Cn1cc(Cl)c(Nc2cc(NC(C)C)c(C(=O)NC[C@@H](F)C(C)(C)O)cn2)n1 [Example 93] | 0.394 |  |
| CC(C)(O)[C@H](F)CNC(=O)c1cnc(Nc2ncncc2F)cc1NC1CC1 [Example 94] | 0.391 |  |
| CC(C)(O)[C@H](F)CNC(=O)c1cnc(Nc2ncncc2Cl)cc1NC1CCOCC1 [Example 95] | 0.501 |  |
| CC(C)(O)[C@H](F)CNC(=O)c1cnc(Nc2ncncc2Cl)cc1NC1CCCOC1 (stereo partly shown) [Example 96] |  | IC50 (Homo sapiens, PBMC, 5 h): 1.55 µM |
| CC(C)(O)[C@H](F)CNC(=O)c1cnc(Nc2ncc(C#N)cc2F)cc1NC1CCCOC1 (stereo partly shown) [Example 97] |  | IC50 (Homo sapiens, PBMC, 5 h): 0.418 µM |
| CC(C)(O)[C@H](F)CNC(=O)c1cnc(Nc2ncc(C#N)cc2F)cc1NC1CCCOC1 (stereo partly shown) [Example 98] |  | IC50 (human PBMC): 0.69 µM |
| CCC(C)Nc1cc(Nc2ncc(C#N)cn2)ncc1C(=O)NC[C@@H](F)C(C)(C)O (stereo partly shown) [Example 99] |  | IC50 (Homo sapiens, PBMC, 5 h): 0.475 µM |
| C[C@H](CO)Nc1cc(Nc2ncc(F)cc2F)ncc1C(=O)NC[C@@H](F)C(C)(C)O [Example 100] | 0.308 |  |
| C[C@@H](CO)Nc1cc(Nc2ncc(C#N)cn2)ncc1C(=O)NC[C@@H](F)C(C)(C)O [Example 101] | 0.38 |  |
| CC(C)(F)CNc1cc(Nc2ncc(C#N)cc2Cl)ncc1C(=O)NC1CCC(C(C)(C)O)CC1 (stereo not shown) [Example 103] | 0.195 |  |
| CC(C)(O)[C@H](F)CNC(=O)c1cnc(Nc2ncc(C#N)cc2Cl)cc1NC1CCCCC1O (stereo partly shown) [Example 104] | 0.199 |  |
| CC(C)(O)[C@H](F)CNC(=O)c1cnc(Nc2ncncc2Cl)cc1NC1CC1 [Example 105] | 0.336 |  |
| CC(=O)N[C@H]1CC[C@H](NC(=O)c2cnc(Nc3ncncc3Cl)cc2NC(C)C)CC1 [Example 106] | 0.433 |  |
| CC(C)(O)[C@H](F)CNC(=O)c1cnc(Nc2ncc(C#N)cn2)cc1N[C@H]1CCC[C@H]1F [Example 107] | 0.757 |  |
| CC(C)(O)[C@H](F)CNC(=O)c1cnc(Nc2ncc(F)cc2F)cc1NC1CCOCC1F (stereo partly shown) [Example 108] | 0.368 |  |
| CC(C)Nc1cc(Nc2ncc(O)cn2)ncc1C(=O)NC[C@@H](F)C(C)(C)O [Example 111] | 0.653 |  |
| COc1cnc(Nc2cc(NC3CCC3)c(C(=O)NC[C@@H](F)C(C)(C)O)cn2)nc1 [Example 112] | 0.087 |  |
| Cc1cnc(Nc2cc(NC(C)C)c(C(=O)NC[C@@H](F)C(C)(C)O)cn2)nc1 [Example 113] | 0.558 |  |
| CC(C)(O)[C@H](F)CNC(=O)c1cnc(Nc2ncc(C#N)cc2F)cc1NC1CCC(F)C1 (stereo partly shown) [Example 114] | 0.056 |  |
| CC(C)Nc1cc(Nc2ncc(C#N)cc2F)ncc1C(=O)N[C@H]1CC[C@H](C(=O)NC(C)C)CC1 [Example 116] | 0.13 |  |
| CCC(O)(CC)[C@H](F)CNC(=O)c1cnc(Nc2ncc(C#N)cn2)cc1NC(C)C [Example 117] | 0.202 |  |
| CC(C)Nc1cc(Nc2ncc(C#N)cc2F)ncc1C(=O)N[C@H]1CC[C@H](C(=O)NC2CC2)CC1 [Example 118] | 0.172 |  |
